Experimental data published in patent US8367873B2, “Phenyl-substituted bicyclooctane-1,3-dione derivatives” (Bayer Cropscience AG, priority 2008, dated 2013).

Tests used:
Format in all cases: in vivo
Setaria viridis [1] = test: Herbicidal pre-emergence action; settings: pre-emergence method, 80 g/ha, greenhouse, visual assessment vs untreated controls
Procedure, shortened: (§1)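 Visual percent effect relative to untreated controls (0% = like control, 100% = dead) assessed three weeks after treatment in the greenhouse. Compounds, as wettable powders in water (600 l/ha, 0.2% wetting agent), were sprayed at different amounts onto covering soil over seeds sown in sandy loam.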

Lolium multiflorum [2] = test: Herbicidal pre-emergence action; settings: pre-emergence method, 80 g/ha, greenhouse, visual assessment vs untreated controls
Procedure, shortened: as §1

Echinocloa crus-galli [3] = test: Herbicidal pre-emergence action; settings: pre-emergence method, 80 g/ha, greenhouse, visual assessment vs untreated controls
Procedure, shortened: as §1

Alopecurus myosuroides [4] = test: Herbicidal pre-emergence action; settings: pre-emergence method, 80 g/ha, greenhouse, visual assessment vs untreated controls
Procedure, shortened: as §1

Setaria viridis [5] = test: Herbicidal post-emergence action; settings: post-emergence method, 80 g/ha
Procedure, shortened: (§2)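 Percent herbicidal effect (0% like control, 100% plants dead) was rated by eye roughly three weeks post-treatment. Treatment was a post-emergence spray of wettable-powder formulations at different doses, 600 l/ha water with 0.2% wetter, onto one-leaf-stage weeds and crops grown in greenhouse pots.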

Lolium multiflorum [6] = test: Herbicidal post-emergence action; settings: post-emergence method, 80 g/ha
Procedure, shortened: as §2

Echinocloa crus-galli [7] = test: Herbicidal post-emergence action; settings: post-emergence method, 80 g/ha
Procedure, shortened: as §2

Alopecurus myosuroides [8] = test: Herbicidal post-emergence action; settings: post-emergence method, 80 g/ha
Procedure, shortened: as §2

[9] = tested on: monocotylidonous and dicotylidonous weed and crop plants; test: Herbicidal post-emergence action (other test plants); settings: post-emergence method, 80 g/ha
Procedure, shortened: as §2

[10] = tested on: monocotylidonous and dicotylidonous weed and crop plants; test: Herbicidal pre-emergence action (other test plants); settings: pre-emergence method, 80 g/ha, greenhouse, visual assessment vs untreated controls
Procedure, shortened: as §1

| SMILES | herbicidal effect SETVI (Setaria viridis [1]) | herbicidal effect LOLMU (Lolium multiflorum [2]) | herbicidal effect ECHCG (Echinocloa crus-galli [3]) | herbicidal effect ALOMY (Alopecurus myosuroides [4]) | herbicidal effect against SETVI (Setaria viridis) (Setaria viridis [5]) | herbicidal effect against LOLMU (Lolium multiflorum) (Lolium multiflorum [6]) | herbicidal effect against ECHCG (Echinochloa crus-galli) (Echinocloa crus-galli [7]) | herbicidal effect against ALOMY (Alopecurus myosuroides) (Alopecurus myosuroides [8]) | herbicidal effect against AVEFA (Avena fatua) [9] | herbicidal effect AVEFA [10] |
| --- | --- | --- | --- | --- | --- | --- | --- | --- | --- | --- |
| CCOC(=O)OC1=C(c2c(C)cc(C)cc2CC)C(=O)C2CC3(CC12)OCCCCO3 (racemic) [I-c-75] | 60% | 100% | 100% | 70% | 100% | 100% | 100% | 60% | 50% | 60% |
| C=C1CC2C(=O)C(c3c(C)cc(C)cc3CC)=C(OC(=O)OCC)C2C1 (racemic) [I-c-76] | 90% | 90% | 100% | 80% | 100% | 90% | 100% | 10% | 0% | 20% |
| C=C1CC2C(=O)C(c3c(C)cc(C)cc3CC)=C(OC(=O)OC)C2C1 (racemic) [I-c-77] | 100% | 90% | 80% | 80% | 90% | 90% | 100% | 0% | 0% | 80% |
| CCc1cc(C)cc(CC)c1C1=C(O)[C@H]2CC3(C[C@H]2C1=O)OCC(C)(C)CO3 (relative stereo) [I-a-9] | 90% | 100% | 100% | 90% | 90% | 90% | 100% | 60% | 60% | 70% |
| CCc1cc(C)cc(CC)c1C1=C(O)[C@H]2CC3(C[C@H]2C1=O)OC(C)(C)C(C)(C)O3 (relative stereo) [I-a-19] | 20% | 100% | 0% | 90% | 50% | 100% | 90% | 80% | 0% | 20% |
| CCc1cc(C)cc(CC)c1C1=C(O)[C@H]2CC3(C[C@H]2C1=O)OCC(OC)CO3 (relative stereo) [I-a-26] | 100% | 100% | 100% | 100% | 100% | 100% | 100% | 100% | 100% | 70% |
| CCc1cc(C)cc(CC)c1C1=C(O)[C@H]2CC3(C[C@H]2C1=O)OCC(OCc1ccccc1)CO3 (relative stereo) [I-a-27] | 90% | 100% | 100% | 90% | 90% | 100% | 100% | 100% | 100% | 80% |
| CCOC1COC2(C[C@@H]3C(O)=C(c4c(CC)cc(C)cc4CC)C(=O)[C@@H]3C2)OC1 (relative stereo) [I-a-28] | 90% | 100% | 100% | 100% | 100% | 100% | 100% | 100% | 100% | 80% |
| CCc1cc(C)cc(CC)c1C1=C(O)[C@H]2CC(=NOCC3CC3)C[C@H]2C1=O (relative stereo) [I-a-31] | 90% | 100% | 100% | 80% | 100% | 100% | 100% | 100% | 80% | 40% |
| C#CC(C)ON=C1C[C@@H]2C(O)=C(c3c(CC)cc(C)cc3CC)C(=O)[C@@H]2C1 (relative stereo) [I-a-32] | 20% | 100% | 40% | 90% | 20% | 100% | 100% | 80% | 0% | 60% |
| C=C1C[C@@H]2C(O)=C(c3c(C)cc(C)cc3C)C(=O)[C@@H]2C1 (relative stereo) [I-a-36] | 80% | 90% | 80% | 60% | 90% | 90% | 90% | 50% | 0% | 70% |
| Cc1cc(C)c(C2=C(O)[C@H]3CC4(C[C@H]3C2=O)OCC(C)CO4)c(C)c1 (relative stereo) [I-a-38] | 90% | 100% | 40% | 100% | 90% | 100% | 80% | 100% | 90% | 40% |
| CCc1cc(C)cc(CC)c1C1=C(OC(=O)OC)[C@H]2C[C@]3(COC(C)(C)O3)C[C@H]2C1=O (relative stereo) [I-c-4] | 50% | 90% | 60% | 90% | 0% | 100% | 100% | 90% | 90% | 80% |
